Data as given in article PMC10142799, “Synthesis, In Silico and In Vitro Characterization of Novel N,N-Substituted Pyrazolopyrimidine Acetamide Derivatives for the 18KDa Translocator Protein (TSPO)” (Pharmaceuticals, 2023).
Several values for one entry are separate records, joined by “and”; a condition that tells them apart may be missing. Equal entries are not always repeated. Where two headings read alike, the source gives them in different places.

Key:
TSPO = biological target: T1, TSPO (Homo sapiens, UniProt P30536); test: In vitro TSPO binding assay, competition with [3H]PK11195 in membrane of human leukocytes
T1 construct: from tissue; host or cells: isolated human leukocytes (membranes)
T1 sequence (P30536 whole entry): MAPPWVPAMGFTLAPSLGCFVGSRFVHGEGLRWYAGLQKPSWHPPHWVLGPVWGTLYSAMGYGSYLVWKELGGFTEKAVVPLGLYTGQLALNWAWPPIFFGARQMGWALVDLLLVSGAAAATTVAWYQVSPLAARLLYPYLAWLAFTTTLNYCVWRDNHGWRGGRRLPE

[1] = In vitro cytotoxicity (MTT assay) on L-929 cells; format: cell-based, mouse; details: mouse, L-929 mouse fibroblast cells, L-929, 24 h, MTT, read-out: Cell viability
Experimental: (§1) Five concentrations of each compound dissolved in 2% of DMSO in culture media (50 μL) were introduced into cell media (96-well plate). The cell cultures treated with ligands were incubated 24 h, and then the media were removed. The cell crudes were measured at 570 nm and 650 nm using a MTT reagent. All procedures and reagents followed ISO 10993-5 and ISO 10993-12.
(§2) 929, mouse fibroblast cells) were cultured in a 96 well plate and treated with 50 […]
(§3) concentration. After incubation at 37 ° C for 24 hours under CO […]
(§4) fluid, the treated culture medium was removed and the absorbance of each samples were measured at 570 and 650 nm using MTT reagent.
(§5) Blank was administered with only 50uL of cell incubation media. As a control, a 50 […]
(§6) n media was administered.
(§7) MTT assay followed ISO 10993 […]
(§8) values of cell viability for GMA 10, GMA 11, GMA 15, DPA

[2] = tested on: L-929 (mouse fibroblast cells); test: In vitro cytotoxicity (MTT assay) on L-929 cells; format: cell-based; details: Mus musculus, read-out: IC50 values of cell viability
Experimental: as §1, §2, §3, §4, §5, §6, §7, §8

[3] = L929, L-929, 24 h, MTT, same values given in μM

Question: With `CCN(CC)C(=O)Cc1c(-c2ccc(OCCF)cc2)nn2c(C)cc(C)nc12` [DPA-714, reference compound] as the compound, how does the Ki (TSPO) read?
Answer: 3.66 nM

Question: What about the viability at 24 h, 3.125 μg/mL [1] of the same compound?
Answer: 51 ± 4.08%

Question: And the viability at 24 h, 6.25 μg/mL [1]?
Answer: 47.3 ± 3.44%

Question: What about the viability at 24 h, 12.5 μg/mL [1] of the same compound?
Answer: 45.2 ± 1.86%

Question: What about the viability at 24 h, 25 μg/mL [1] of the same compound?
Answer: 32.1 ± 2.54%

Question: What about the viability at 24 h, 50 μg/mL [1] of the same compound?
Answer: 11.2 ± 1.94%

Question: And the IC50 ([2]; L929, L-929, 24 h, MTT)?
Answer: 18.6 mg/L

Question: What about the IC50 [2, 3] of the same compound?
Answer: 46.7 µM

Question: For `CCc1cc(CC)n2nc(-c3ccc(F)cc3)c(CC(=O)N(C)CC)c2n1` [GMA 7, 2-(5,7-diethyl-2-(4-fluorophenyl)pyrazolo [1,5-a]pyrimidin-3-yl)-N-ethyl-N-methylacetamide], which Ki (TSPO) is on record?
Answer: 17.1 nM

Question: With `CCc1cc(CC)n2nc(-c3ccc(F)cc3)c(CC(=O)N(CC)CC)c2n1` [GMA 8, 2-(5,7-diethyl-2-(4-fluorophenyl)pyrazolo [1,5-a]pyrimidin-3-yl)-N,N-diethylacetamide] as the compound, how does the Ki (TSPO) read?
Answer: 8.79 nM

Question: Which Ki (TSPO) does the source give for `CCc1cc(CC)n2nc(-c3ccc(F)cc3)c(CC(=O)N(CC)C(C)C)c2n1` [GMA 9, 2-(5,7-Diethyl-2-(4-fluorophenyl)pyrazolo [1,5-a]pyrimidin-3-yl)-N-ethyl-N-isopropyl acetamide] here?
Answer: 13.3 nM

Question: What does the source list for `CCCN(CCC)C(=O)Cc1c(-c2ccc(F)cc2)nn2c(CC)cc(CC)nc12` [GMA 10, 2-(5,7-diethyl-2-(4-fluorophenyl)pyrazolo [1,5-a]pyrimidin-3-yl)-N,N-dipropylacetamide]?
Answer: Ki (TSPO): 0.18 nM; viability at 24 h, 3.125 μg/mL [1]: 64.5 ± 1.19%; viability at 24 h, 6.25 μg/mL [1]: 53.4 ± 2.02%; viability at 24 h, 12.5 μg/mL [1]: 39.8 ± 0.74%; viability at 24 h, 25 μg/mL [1]: 24.6 ± 3.13%; viability at 24 h, 50 μg/mL [1]: 19.8 ± 1.19%; IC50 ([2]; L929, L-929, 24 h, MTT): 15.2 mg/L; IC50 [2, 3]: 37.1 µM

Question: Which Ki (TSPO) does the source give for `CCc1cc(CC)n2nc(-c3ccc(F)cc3)c(CC(=O)N(CC)CCOC)c2n1` [GMA 11, 2-(5,7-diethyl-2-(4-fluorophenyl)pyrazolo [1,5-a]pyrimidin-3-yl)-N-ethyl-N-(2-methoxyethyl) acetamide] here?
Answer: 0.19 nM

Question: What about the viability at 24 h, 3.125 μg/mL [1] of the same compound?
Answer: 61.7 ± 0.71%

Question: And the viability at 24 h, 6.25 μg/mL [1]?
Answer: 58.3 ± 3.12%

Question: And the viability at 24 h, 12.5 μg/mL [1]?
Answer: 39.5 ± 0.63%

Question: What about the viability at 24 h, 25 μg/mL [1] of the same compound?
Answer: 33.5 ± 2.28%

Question: And the viability at 24 h, 50 μg/mL [1]?
Answer: 28.9 ± 1.12%

Question: And the IC50 ([2]; L929, L-929, 24 h, MTT)?
Answer: 36.2 mg/L

Question: What about the IC50 [2, 3] of the same compound?
Answer: 87.8 µM

Question: With `CCc1cc(CC)n2nc(-c3ccc(F)cc3)c(CC(=O)N(CCOC)CCOC)c2n1` [GMA 12, 2-(5,7-Diethyl-2-(4-fluorophenyl)pyrazolo [1,5-a]pyrimidin-3-yl)-N,N-bis(2-methoxyethyl) acetamide] as the compound, how does the Ki (TSPO) read?
Answer: 25.4 nM

Question: For `C#CCN(CC#C)C(=O)Cc1c(-c2ccc(F)cc2)nn2c(CC)cc(CC)nc12` [GMA 13, 2-(5,7-diethyl-2-(4-fluorophenyl)pyrazolo [1,5-a]pyrimidin-3-yl)-N,N-di(prop-2-yn-1-yl) acetamide], which Ki (TSPO) is on record?
Answer: 0.9 nM

Question: For `CCc1cc(CC)n2nc(-c3ccc(F)cc3)c(CC(=O)N(CC)c3ccccc3)c2n1` [GMA 15, 2-(5,7-diethyl-2-(4-fluorophenyl)pyrazolo [1,5-a]pyrimidin-3-yl)-N-ethyl-N-phenylacetamide], which Ki (TSPO) is on record?
Answer: 0.06 nM

Question: What about the “fold enhancement in affinity compared to DPA-714” value (TSPO; ratio of Ki values) of the same compound?
Answer: 61 fold

Question: And the “fold higher affinity compared to PK11195” value (TSPO; ratio of Ki values)?
Answer: 22 fold

Question: What about the viability at 24 h, 3.125 μg/mL [1] of the same compound?
Answer: 57.9 ± 4.04%

Question: And the viability at 24 h, 6.25 μg/mL [1]?
Answer: 50.6 ± 2.39%

Question: What about the viability at 24 h, 12.5 μg/mL [1] of the same compound?
Answer: 26 ± 8.01%

Question: What about the viability at 24 h, 25 μg/mL [1] of the same compound?
Answer: 9.6 ± 1.6%

Question: And the viability at 24 h, 50 μg/mL [1]?
Answer: 6.6 ± 2.15%

Question: What about the IC50 ([2]; L929, L-929, 24 h, MTT) of the same compound?
Answer: 9.73 mg/L

Question: What about the IC50 [2, 3] of the same compound?
Answer: 22.6 µM

Question: Which Ki (TSPO) does the source give for `CCc1cc(CC)n2nc(-c3ccc(F)cc3)c(CC(=O)N(CC)Cc3ccccc3OC)c2n1` [GMA 16, 2-(5,7-diethyl-2-(4-fluorophenyl)pyrazolo [1,5-a]pyrimidin-3-yl)-N-ethyl-N-(2-methoxybenzyl)acetamide] here?
Answer: 0.49 nM

Question: Which Ki (TSPO) does the source give for `CCc1cc(CC)n2nc(-c3ccc(F)cc3)c(CC(=O)N(CC)Cc3cc(OC)ccc3OC)c2n1` [GMA 17, 2-(5,7-diethyl-2-(4-fluorophenyl)pyrazolo [1,5-a]pyrimidin-3-yl)-N-(2,5-dimethoxybenzyl)-N-ethylacetamide] here?
Answer: 0.54 nM

Question: Which viability at 24 h, 3.125 μg/mL [1] does the source give for `CCC(C)N(C)C(=O)c1cc2ccccc2c(-c2ccccc2Cl)n1` (centres unmarked) [PK11195, reference compound] here?
Answer: 57.8 ± 5.22%

Question: And the viability at 24 h, 6.25 μg/mL [1]?
Answer: 49.08 ± 0.43%

Question: And the viability at 24 h, 12.5 μg/mL [1]?
Answer: 48.18 ± 0.43%

Question: What about the viability at 24 h, 25 μg/mL [1] of the same compound?
Answer: 38.3 ± 4.8%

Question: What about the viability at 24 h, 50 μg/mL [1] of the same compound?
Answer: 32.8 ± 3.14%

Question: And the IC50 ([2]; L929, 24 h)?
Answer: 22.1 µg/mL and 62.7 µM
